Measured values taken from PubChem BioAssay (NCI).
Several values for one entry are separate records, joined by “and”; a condition that tells them apart may be missing. Equal values may be shown once.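 Compound exposure: 48 hours, 5 concentrations, 96-well plates. Here, GI50 denotes the concentration required for 50% inhibition of growth. TGI denotes the concentration required for complete inhibition of growth.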

Key:
Experiment in all cases: NCI-60 cell line screen, 48 h
HL-60(TB) leukemia = test system: HL-60(TB) leukemia
EKVX NSCLC = test system: EKVX NSCLC
NCI-H522 lung = test system: NCI-H522 lung
NCI-H226 lung = test system: NCI-H226 lung
MOLT-4 leukemia = test system: MOLT-4 leukemia
CCRF-CEM leukemia = test system: CCRF-CEM leukemia
IGROV1 ovarian = test system: IGROV1 ovarian
PC-3 prostate = test system: PC-3 prostate
M14 melanoma = test system: M14 melanoma
COLO 205 colon = test system: COLO 205 colon

Row | SMILES | GI50 (HL-60(TB) leukemia) | TGI (HL-60(TB) leukemia) | GI50 (EKVX NSCLC) | TGI (EKVX NSCLC) | GI50 (NCI-H522 lung) | TGI (NCI-H522 lung) | GI50 (NCI-H226 lung) | TGI (NCI-H226 lung) | GI50 (MOLT-4 leukemia) | TGI (MOLT-4 leukemia) | GI50 (CCRF-CEM leukemia) | TGI (CCRF-CEM leukemia) | GI50 (IGROV1 ovarian) | TGI (IGROV1 ovarian) | GI50 (PC-3 prostate) | TGI (PC-3 prostate) | GI50 (M14 melanoma) | TGI (M14 melanoma) | GI50 (COLO 205 colon) | TGI (COLO 205 colon)
1 | O=C(O)Cc1cccc2c(=O)cc(-c3ccccc3)oc12 | 142 µM | > 250 µM and 193 µM | 611 µM | 250 µM and > 1000 µM | 285 µM | 250 µM and > 773 µM | 363 µM | 250 µM and > 1000 µM | 288 µM | > 824 µM | > 49.6 µM and 29.8 µM | 237 µM and 747 µM | 518 µM | > 1000 µM | > 955 µM | > 1000 µM | 519 µM | > 1000 µM | 636 µM | > 1000 µM
2 | COc1cnc2c(c1)C(=O)c1c-2n(CCCN2CCCC2)c(=O)c2cc([N+](=O)[O-])ccc12 | 0.0299 µM | 1.06 µM | 0.297 µM | 12.3 µM | 0.0607 µM | 3.8 µM | 0.104 µM | 0.715 µM | < 0.01 µM | 0.0451 µM | < 0.01 µM | 3.77 µM | 0.0187 µM | 1.36 µM | 0.0662 µM | 13.9 µM | < 0.01 µM | 1.01 µM | 0.0354 µM | 13.8 µM
3 | NC(=O)c1cc(N2CC2)c([N+](=O)[O-])cc1[N+](=O)[O-] | > 200 µM | > 200 µM | > 200 µM | > 200 µM | > 200 µM | > 200 µM | > 200 µM | > 200 µM | – | > 63.2 µM | > 200 µM | > 200 µM | > 200 µM | > 200 µM | – | > 200 µM | > 200 µM | > 200 µM | > 200 µM | > 200 µM
4 | COc1ccc(Br)cc1NC(=O)Nc1cccc2c1ccn2Cc1ccnc(N)c1 | 4.69 µM and 3.6 µM | 20.8 µM and > 10 µM | 7.36 µM and 9.64 µM | > 100 µM | 1.89 µM and 2.45 µM | 4.35 µM and > 10 µM | 6.45 µM and 8.39 µM | 48.4 µM and > 10 µM | 3.06 µM and 3.14 µM | 18.9 µM and > 10 µM | 3.92 µM and 5.43 µM | 40 µM and > 10 µM | 7.64 µM and 3.95 µM | 44.2 µM and > 10 µM | 4.52 µM and 4.5 µM | > 54.8 µM | 3.09 µM and 2.68 µM | 10.5 µM and > 10 µM | 6.48 µM and 4.48 µM | 18.2 µM and > 10 µM
5 | COC(=O)/C=C1/SC(=Nc2cccc(Cl)c2)N(CCc2c[nH]c3ccc(O)cc23)C1=O | 1.79 µM | 6.09 µM | 2.19 µM | 5.51 µM | 1.63 µM | 3.4 µM | 1.65 µM | 3.08 µM | 1 µM | 5.1 µM | 0.931 µM | 5.27 µM | 2 µM | 4.35 µM | 1.74 µM | 3.87 µM | 1.62 µM | 3.36 µM | 2.05 µM | 4.04 µM
